The values that follow come from patent US5559025A (priority 1991, dated 1996).

“Also recorded” adds a separate entry of the source. Read-outs that look alike come from different tables or passages of the source. *1 amine or outer side, *2 acyl side, *3 side chain or, on linkers, in order; H or OH if unused. Where a SMILES comes first, the peptide text is derived from it. CO = O=C([*:1])[*:2]

Assay type in all cases: biochemical
Experiment [1] addresses T1, HRV2 2A proteinase (Human rhinovirus 2, UniProt P04936).
Target sequence in this assay (P04936 851-992 limits assumed): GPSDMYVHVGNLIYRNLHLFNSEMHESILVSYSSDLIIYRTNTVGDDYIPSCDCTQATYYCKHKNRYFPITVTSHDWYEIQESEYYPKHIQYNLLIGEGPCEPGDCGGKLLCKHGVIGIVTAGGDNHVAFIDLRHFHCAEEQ
In experiment [2] the target is T1, HRV2 2A proteinase. In words: Competition of non-cleavable or slightly cleavable peptides with P89 cleaving.
Experiment [3] addresses T1, HRV2 2A proteinase. Particulars: for cleavability by HRV2 2A (in words): trans-cleavage assay, 34° C., up to 32 minutes.
Experiment [4] addresses T1, HRV2 2A proteinase. In words: Km determination with peptide substrate P89 (trans-cleavage assays). Particulars: peptide substrate P89, 15° C., 50 to 500 μmol/l, repeated three times with various 2A preparations. The method, then: […] For competitive or inhibitory studies, an additional 5 μl of solution containing the substance for competition or inhibition are added. The reaction is stopped by adding an equal volume of a 0.5M HClO4 solution. The samples are cooled to 0° C. for 10 minutes or frozen overnight at -20° C. After centrifugation (Eppendorf centrifuge, 10 min, 4° C.) an equal volume of a 1.4M K2 HPO4 solution is added. The samples are left to stand for 5 minutes at ambient temperature and the precipitate is separated off by centrifuging. […] The reaction products are detected by UV absorption at 214 and 280 nm. The course of the reaction over a period of time (% cleavage of the peptide substrate) is determined by "reverse phase" HPLC. The area of the newly formed peptide peak corresponding to the quantity of the carboxy- and amino terminal cleavage products is determined for each case and compared with the area of the uncleaved P89. The cleavage products are determined either by comigration with the corresponding reference peptides and amino acid analysis or by protein sequencing (Hunkapillar and Hood, 1983, loc. cit.). […]
In order to identify the Km value for the Wild type substrate P89 a set of trans-cleavage assays are carried out at 15° C. with various P89 substrate concentrations (between 50 and 500 μmol/l). […] For each substrate concentration the reaction speed was determined (% cleavage of P89). […]

The mark [5] stands for this setting: inhibitor added before start of reaction, repeated three times.

Turning to `O[C@H](CS)[C@H](O)CS` (racemic) [DTT, Dithiothreitol], at HRV2 2A proteinase [1] (setting [5]), the “effect on the activity of 2A relative to peptide P89” value is given as “no effect”.
Same read-out and setting: the same measure for `c1cnc2c(c1)ccc1cccnc12` [1,10-phenanthrolene]: “a certain inhibiting effect at higher concentrations”; for `O=c1oc(Cl)c(Cl)c2ccccc12` [3,4-dichloroisocumarin]: “no activity”; for `N=C(N)c1ccc(CS(=O)(=O)F)cc1` [APMSF, 4-(Amidinophenyl)methanesulphonylfluoride]: “no activity”.
Still for that read-out and setting: next, `CC(C)CC(NC(=O)C1OC1C(=O)O)C(=O)NCCCCNC(=N)N` (stereo not drawn) [E-64]: “no effect”.
`O=C(O)CN(CCN(CC(=O)O)CC(=O)O)CC(=O)O` [EDTA]: the “effect on the activity of 2A relative to peptide P89” value on HRV2 2A proteinase [1] was “a certain inhibiting effect at higher concentrations”.
In the case of `CC(=O)N[C@@H](CC(C)C)C(=O)N[C@@H](CC(C)C)C(=O)N[C@H](C=O)CCCNC(=N)N` [Leupeptine], the “effect on the activity of 2A relative to peptide P89” value at HRV2 2A proteinase [1] (setting [5]) was “ineffectiveness”.
Same read-out and setting: the same measure for `CCN1C(=O)C=CC1=O` [N-ethylmaleimide]: “strongly inhibit”; for `Cc1ccc(S(=O)(=O)N[C@@H](CCCCN)C(=O)CCl)cc1` [TLCK, Tosyllysylchloromethylketone]: “only effective at higher concentrations”.
The same measure, in the same setting: next, `Cc1ccc(S(=O)(=O)N[C@@H](Cc2ccccc2)C(=O)CCl)cc1` [TPCK, Tosylphenylalanylchloromethylketone]: “only effective at higher concentrations”; `CC(C)[C@H](NC(=O)[C@H](CCCNC(=N)N)NC(=O)N[C@@H](Cc1ccccc1)C(=O)O)C(=O)N[C@H](C=O)CCCNC(=N)N` [antipain] ({Phe-CO}-Arg-Val-Arg-aldehyde): “highly effective”.
Same read-out and setting: the same measure for `N[C@@H](CS)C(=O)O` [cysteine]: “no effect”; for `CC(C)C[C@H](NC(=O)N[C@H](C(=O)N[C@@H](CCC(N)=O)C(=O)N[C@@H](C)C=O)[C@@H]1CCNC(=N)N1)C(=O)O` [elastatinal]: “highly effective”; for `NC(=O)CI` [iodacetamide]: “strongly inhibit”.
Consider Ac-IITTAGPSDM-NH2 [P145, IITTAGPSDM], for which the “ability to act as competitor/inhibitor of P89 cleaving” value at HRV2 2A proteinase [2] is on record as “became competitive; also recorded: behaved competitively; also recorded: competitive inhibitors”. In addition, the “cleavability by HRV2 2A (in words)” value on HRV2 2A proteinase [3] is “cannot be cleaved”.
On the same counts, the results for Ac-ITTAGPSD-NH2 [WTD8, ITTAGPSD] are “became competitive; also recorded: behaved competitively; also recorded: competitive inhibitors” and “cannot be cleaved”.
In the case of Ac-ITTAGPSDMYVH-NH2 [D], at HRV2 2A proteinase [3], the “cleavability by HRV2 2A (in words)” value is “fall in cleavability of one order of magnitude; also recorded: reduction in the cleavability by one order of magnitude”.
For Ac-TRPIITTAG-NH2 [WTN9], on HRV2 2A proteinase [3], the “% cleavage compared with P89” value is recorded as 10% and the “cleavability by HRV2 2A (in words)” value is recorded as “sufficient for a cleavage”.
Regarding “TRIITSAGPSDMYV [B4, Thr for Ser at position P2]”, the “ability to act as competitor/inhibitor of P89 cleaving” value with HRV2 2A proteinase [2] is given as “became competitive; also recorded: behaved competitively”.
As for “TRPIITNAGPSDMYV [B8, Thr for Asn at position P2]”, the “ability to act as competitor/inhibitor of P89 cleaving” value with HRV2 2A proteinase [2] is on record as “became competitive; also recorded: behaved competitively”.
With “TRPIITTNGPSDMYV [G5, Ala for Asn at position P1]”, in the experiment with HRV2 2A proteinase [2], the “ability to act as competitor/inhibitor of P89 cleaving” value is given as “became competitive; also recorded: behaved competitively”. Moreover, the “cleavability by HRV2 2A (in words)” value with HRV2 2A proteinase [3] is “dramatically reduced cleavability”.
On the same counts, the results for “TRPIITTPSDMYVH [AB2, deleted Wild type substrate, missing cleavage site]” are “became competitive; also recorded: behaved competitively; also recorded: competitive inhibitors” and “No cleaving (nor any alternative) is observed; also recorded: No cleavage (nor any alternative cleavage) was observed; also recorded: cannot be cleaved”.
In the case of “acetyl-TRPIITTA*GPSDMYVH-NH2 (Ac-TRPIITTAGPSDMYVH-NH2; not fully specified (residue 8); printed as acetyl-TRPIITTA*GPSDMYVH-NH2) [P89, reference compound]”, the Michaelis constant (Km) with HRV2 2A proteinase [4] stood at 540 µM. Also, the “cleavability by HRV2 2A (in words)” value in the experiment with HRV2 2A proteinase [3] is given as “specifically cleaved”.
Turning to chymostatin, the “effect on the activity of 2A relative to peptide P89” value at HRV2 2A proteinase [1] (setting [5]) is recorded as “highly effective”.

What is called Km is the concentration of substrate that gives half-maximal velocity.
